# Experimental data published in patent US7446199B2, “Compositions useful as inhibitors of protein kinases” (Vertex Pharmaceuticals Incorporated, priority 2003, dated 2008).
# Biological target: T1, FLT-3 (Homo sapiens, UniProt P36888)
# T1 construct: 0.02% BSA and 3 nM FLT-3
# T1 sequence (P36888 27-993): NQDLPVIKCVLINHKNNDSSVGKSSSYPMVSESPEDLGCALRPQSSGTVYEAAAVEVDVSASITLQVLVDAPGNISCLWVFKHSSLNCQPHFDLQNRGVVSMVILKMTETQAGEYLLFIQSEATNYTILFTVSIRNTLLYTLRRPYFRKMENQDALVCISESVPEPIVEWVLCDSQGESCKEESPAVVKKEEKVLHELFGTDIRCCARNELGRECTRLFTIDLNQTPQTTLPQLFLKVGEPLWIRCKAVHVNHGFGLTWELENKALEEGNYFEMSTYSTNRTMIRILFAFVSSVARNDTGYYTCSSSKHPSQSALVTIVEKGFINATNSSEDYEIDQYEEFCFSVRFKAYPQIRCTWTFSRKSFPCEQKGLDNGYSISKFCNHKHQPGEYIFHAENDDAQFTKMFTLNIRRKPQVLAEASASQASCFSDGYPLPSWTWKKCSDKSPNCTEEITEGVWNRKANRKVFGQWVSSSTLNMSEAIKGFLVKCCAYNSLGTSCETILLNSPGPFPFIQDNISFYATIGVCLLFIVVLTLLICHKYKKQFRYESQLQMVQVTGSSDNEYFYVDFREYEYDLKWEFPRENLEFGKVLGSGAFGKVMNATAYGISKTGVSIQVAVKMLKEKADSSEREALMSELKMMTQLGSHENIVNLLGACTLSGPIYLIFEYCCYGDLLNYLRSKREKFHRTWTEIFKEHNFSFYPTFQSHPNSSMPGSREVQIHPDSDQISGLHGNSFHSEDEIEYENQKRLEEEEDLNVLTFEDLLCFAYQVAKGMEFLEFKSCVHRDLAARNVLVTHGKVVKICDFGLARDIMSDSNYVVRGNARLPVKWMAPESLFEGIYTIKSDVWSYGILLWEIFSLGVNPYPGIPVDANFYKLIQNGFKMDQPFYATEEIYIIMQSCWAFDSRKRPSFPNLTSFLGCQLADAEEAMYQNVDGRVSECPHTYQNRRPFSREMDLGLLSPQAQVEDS
# Experiment: Inhibition of FLT-3, radiometric filter-binding assay
# Format: biochemical
# Conditions: 90 μM ATP, 0.5 mg/mL pE4Y, room temperature
# In short: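 Radiometric filter-binding assay of FLT-3 (3 nM in Solution 2; final conc not stated) phosphorylating poly(Glu,Tyr) 4:1 (0.5 mg/mL) with 90 μM ATP plus [γ-33P]ATP, in HEPES pH 7.5, MgCl2, NaCl, DTT, BSA, 2.5% DMSO. 12-point titration, typically 0.01–5 μM, 20 min at room temperature; TCA-stopped, filtered, scintillation-counted; IC50 or Ki fitted.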
row,SMILES,Ki [µM]
1,"COc1cnc2[nH]cc(-c3oncc3-c3cccc(Cl)c3Cl)c2c1 [Compound 49, 3-[4-(2,3-Dichloro-phenyl)-isoxazol-5-yl]-5-methoxy-1H-pyrrolo[2,3-b]pyridine]",0.2 to 1
2,"CN(C)CCNc1ccc(-c2cnc3[nH]cc(-c4nncn4-c4cccc(F)c4F)c3c2)cn1 [Compound 119, N′-(5-{3-[4-(2,3-Difluoro-phenyl)-4H-[1,2,4]triazol-3-yl]-1H-pyrrolo[2,3-b]pyridin-5-yl}-pyridin-2-yl)-N,N-dimethyl-ethane-1,2-diamine]",0.2 to 1
3,"Fc1cccc(-c2cnoc2-c2c[nH]c3ncc(-c4ccc(N5CCNCC5)cc4)cc23)c1F [Compound 68, 3-[4-(2,3-Difluoro-phenyl)-isoxazol-5-yl]-5-(4-piperazin-1-yl-phenyl)-1H-pyrrolo[2,3-b]pyridine]",< 0.2
4,"Fc1cccc(-c2cnoc2-c2c[nH]c3ncc(C4=CCC(NCc5ccccc5)CC4)cc23)c1F (stereo not shown) [Compound 136, Benzyl-(4-{3-[4-(2,3-difluoro-phenyl)-isoxazol-5-yl]-1H-pyrrolo[2,3-b]pyridin-5-yl}-cyclohex-3-enyl)-amine]",0.2 to 1
5,"Fc1cccc(-c2cnoc2-c2c[nH]c3ncc(-c4ncccn4)cc23)c1F [Compound 75, 3-[4-(2,3-Difluoro-phenyl)-isoxazol-5-yl]-5-pyrimidin-2-yl-1H-pyrrolo[2,3-b]pyridine]",0.2 to 1
6,"CN(C)C1CC=C(c2cnc3[nH]cc(-c4oncc4-c4cccc(F)c4F)c3c2)CC1 (stereo not shown) [Compound 138, (4-{3-[4-(2,3-Difluoro-phenyl)-isoxazol-5-yl]-1H-pyrrolo[2,3-b]pyridin-5-yl}-cyclohex-3-enyl)-dimethyl-amine]",< 0.2
7,"Fc1cccc(-c2cnoc2-c2c[nH]c3ncc(-c4ccccn4)cc23)c1F [Compound 73, 3-(4-(2,3-Difluoro-phenyl)-isoxazol-5-yl)-5-pyridin-2-yl-1H-pyrrolo[2,3-b]pyridine]",0.2 to 1
8,"CN(C)c1ccnc(-c2cnc3[nH]cc(-c4oncc4-c4cccc(F)c4F)c3c2)c1 [Compound 80, (2-{3-[4-(2,3-Difluoro-phenyl)-isoxazol-5-yl]-1H-pyrrolo[2,3-b]pyridin-5-yl}-pyridin-4-yl)-dimethyl-amine]",1 to 12.5
9,"Fc1cccc(-c2cnoc2-c2c[nH]c3ncc(/C=C/n4cncn4)cc23)c1F [Compound 133, 3-[4-(2,3-Difluoro-phenyl)-isoxazol-5-yl]-5-(2-[1,2,4]triazol-1-yl-vinyl)-1H-pyrrolo[2,3-b]pyridine]",< 0.2
10,Nc1[nH]c2ncccc2c1-c1oncc1-c1cccc(F)c1F [Compound 152],1 to 12.5
11,"CN1CCN(c2ccc(-c3cnc4[nH]cc(-c5oncc5-c5cccc(F)c5F)c4c3)cn2)CC1 [Compound 71, 3-[4-(2,3-Difluoro-phenyl)-isoxazol-5-yl]-5-[6-(4-methyl-piperazin-1-yl)-pyridin-3-yl]-1H-pyrrolo[2,3-b]pyridine]",< 0.2
12,CN1CCN(c2ccc(-c3cnc4[nH]cc(-c5nncn5-c5cccc(F)c5F)c4c3)cn2)CC1 [Compound 112],0.2 to 1
13,"CN(C)c1ccc(-c2cnc3[nH]cc(-c4nncn4-c4cccc(F)c4F)c3c2)cc1 [Compound 106, (4-{3-[4-(2,3-Difluoro-phenyl)-4H-[1,2,4]triazol-3-yl]-1H-pyrrolo[2,3-b]pyridin-5-yl}-phenyl)-dimethyl-amine]",0.2 to 1
14,"Fc1c(Cl)cccc1-c1cnoc1-c1c[nH]c2ncccc12 [Compound 42, 3-[4-(3-Chloro-2-fluoro-phenyl)-isoxazol-5-yl]-1H-pyrrolo[2,3-b]pyridine]",1 to 12.5
15,"N#CCC(=O)N1CCC(c2cnc3[nH]cc(-c4oncc4-c4cccc(F)c4F)c3c2)CC1 [Compound 64, 3-(4-{3-[4-(2,3-Difluoro-phenyl)-isoxazol-5-yl]-1H-pyrrolo[2,3-b]pyridin-5-yl}-piperidin-1-yl)-3-oxo-propionitrile]",0.2 to 1
16,"Fc1cccc(-c2cnoc2-c2c[nH]c3ncc(-c4cccnc4)cc23)c1F [Compound 59, 3-[4-(2,3-Difluoro-phenyl)-isoxazol-5-yl]-5-pyridin-3-yl-1H-pyrrolo[2,3-b]pyridine]",< 0.2
